Results reported in patent publication EP0532512B1, “USE OF PLATELET ACTIVATING FACTOR ANTAGONISTS AS ANTI-PRURITIC AGENTS” (ALLERGAN, INC., priority 1990, dated 1991).
Where a SMILES comes first, the peptide text is derived from it.

Columns and labels:
PAF induced pruritus = experiment: Attenuation of PAF induced pruritus by 30 minute topical pretreatment (conjunctival itch-scratch model); assay type: in vivo, guinea-pig; conditions: for scratch episodes, TREATED GROUP (mean ± SEM): 30 minute topical pretreatment, n=12
From the text: (§1) A more complete appreciation of the invention may be obtained from the following Examples. As a means of providing an atraumatic experimental model of itching, the conjunctiva was used as a convenient tissue site. Pruritogenic agents may be administered to the conjunctiva without the need to traumatize the tissue by injection or scarification. The itch sensation is elicited peripherically by local, atraumatic application of the pruritogen. Of equal importance is the ability of this model to identify locally acting anti-pruritic agents without concerns regarding local tissue trauma or, in the case of systemically administered agents, sedation.
(§2) The pruritogenic activity of numerous and structurally diverse autocoids was examined as follows. A 20 µl drop of a solution of the particular autocoid under evaluation was topically administered to one albino guinea-pig eye, the contralateral eye received 20 µl of vehicle as a control. For PAF studies, the R=15 version of formula I was used and was taken up in 0.5% ultrapure bovine serum albumin. The guinea pig was then replaced in its cage and the number of scratching episodes was recorded over the 15 subsequent minute period. The retention of the experimental animal in familiar surroundings is an important factor in experimental design. Scratching, which is the typical mammalian behavioral response to the itch sensation, provides an indication of the intensity of the perceived itch sensation and can be quantified by recording the frequency at which itch-scratch episodes occur per unit time: 15 minutes in the case of these examples.
The ability of a 30 minute topical pretreatment with selected PAF antagonists to attenuate PAF induced pruritus is shown in Table 2.

[1] = system: experimental allergic itching; experiment: Experimental allergic itching: conjunctival antigen (chicken ovalbumin) challenge in presensitized animals after pretreatment; assay type: in vivo; conditions: n=8-10
From the text: as §1
In addition to pharmacological studies on pruritogenic autocoids, the conjunctiva may be used as a convenient site for modelling diseases where itching is a major symptom. In animals presensitized to a particular antigen, subsequent topical challenge with that antigen results in conjunctival itching. This may be regarded as an experimental model of itching which has general relevance to clinically encountered pruritus. In the studies described herein, chicken ovalbumin was used as an antigenic substance and the ability of PAF antagonist pretreatment to block the itching response was examined (Table 3).

albino guinea-pig eye = experiment: Pruritogenic activity of autocoids: topical drop to the eye (conjunctiva), scratching episodes counted over 15 minutes; assay type: in vivo; conditions: for NO OF SCRATCH EPISODES (X̄ ± SEM): 15 minutes, n=12; for pruritogenic activity (in words): summary of Table 1
From the text: as §1, §2

[2] = dose 10 μg, 20 µl drop topically to one eye
[3] = dose 100 μg, 20 µl drop topically to one eye

CC1C(=O)OC2C(O)C34C5CC(C(C)(C)C)C36C(OC(=O)C6O)OC4(C(=O)O5)C12O (stereo not shown) [Compound of formula (III), Ginkgolide B]
scratch episodes, TREATED GROUP (mean ± SEM) (PAF induced pruritus; 10 mg/ml, vs 10 µg PAF): 8.42 ± 1.37
scratch episodes, TREATED GROUP ([1]; 10 mg/ml pretreatment vs 100 µG antigen): 6.87 ± 1.61

CCCCC/C=C\CC(O)/C=C/C=C\C/C=C\CCCC(=O)O (stereo not shown) [12-Hydroxytetraemoic Acid]
NO OF SCRATCH EPISODES (X̄ ± SEM) (albino guinea-pig eye; [2]): 0.08 ± 0.08

CC(=O)O [10mM ACETIC ACID, ACETIC ACID]
NO OF SCRATCH EPISODES (X̄ ± SEM) (albino guinea-pig eye; pain producing stimulus solution, no dose printed (--)): 0.42 ± 0.19
pruritogenic activity (in words) (albino guinea-pig eye): virtual absence of an itch-scratch response

Bradykinin (RPPGFSPFR; Bradykinin; UniProt P01042 381-389, looked up)
NO OF SCRATCH EPISODES (X̄ ± SEM) (albino guinea-pig eye; [2]): 0.50 ± 0.23
NO OF SCRATCH EPISODES (X̄ ± SEM) (albino guinea-pig eye; [3]): 4.00 ± 0.90

CCCCC/C=C\C[C@@H](O)/C=C/C=C/C=C\[C@@H](O)CCCC(=O)O [LEUKOTRIENE B4]
NO OF SCRATCH EPISODES (X̄ ± SEM) (albino guinea-pig eye; [2]): 0.42 ± 0.23

CCCCCCCCCCCCCCCCCCNC(=O)OCC(COC(=O)N(Cc1cccc[n+]1CC)C(C)=O)OC (stereo not shown) [Compound of formula (II)]
scratch episodes, TREATED GROUP (mean ± SEM) (PAF induced pruritus; 10 mg/ml, vs 1 µg PAF): 2.67 ± 0.68
scratch episodes, TREATED GROUP (mean ± SEM) (PAF induced pruritus; 10 mg/ml, vs 10 µg PAF): 6.50 ± 1.09
scratch episodes, TREATED GROUP ([1]; 1 mg/ml pretreatment vs 100 µG antigen): 7.62 ± 0.96

C[C@H](N)C(=O)NCC(=O)N[C@@H](CO)C(=O)N[C@@H](CCC(=O)O)C(=O)O [L-alanylglycyl-L-seryl-L-glutamic acid] (H-AGSE-OH)
NO OF SCRATCH EPISODES (X̄ ± SEM) (albino guinea-pig eye; dose 1000 μg, 20 µl drop topically to one eye): 1.42 ± 0.47

CCCCCC(O)/C=C/C=C\C/C=C\C/C=C\CCCC(=O)O (stereo not shown) [15-Hydroxytetraemoic Acid]
NO OF SCRATCH EPISODES (X̄ ± SEM) (albino guinea-pig eye; [2]): 0.08 ± 0.08

CCCCC/C=C\C/C=C\C/C=C\C=C\C(O)CCCC(=O)O (stereo not shown) [5-Hydroxytetraemoic Acid]
NO OF SCRATCH EPISODES (X̄ ± SEM) (albino guinea-pig eye; [2]): 0.33 ± 0.22

CCCCCCCCCCCCCCCCOC[C@@H](O)COP(=O)([O-])OCC[N+](C)(C)C [LYSO-PAF]
NO OF SCRATCH EPISODES (X̄ ± SEM) (albino guinea-pig eye; dose 1 μg, 20 µl drop topically to one eye): 0.92 ± 0.26
NO OF SCRATCH EPISODES (X̄ ± SEM) (albino guinea-pig eye; [2]): 2.67 ± 0.73
NO OF SCRATCH EPISODES (X̄ ± SEM) (albino guinea-pig eye; [3]): 13.0 ± 1.58
pruritogenic activity (in words) (albino guinea-pig eye): relatively weak activity

COc1ccc(CN(CCN(C)C)c2ccccn2)cc1 [Pyrilamine]
scratch episodes, TREATED GROUP (mean ± SEM) (PAF induced pruritus; 0.1 mg/ml, vs 1 µg PAF): 4.17 ± 0.91
scratch episodes, TREATED GROUP (mean ± SEM) (PAF induced pruritus; 0.1 mg/ml, vs 10 µg PAF): 14.25 ± 1.75
block of PAF induced pruritus (in words) (PAF induced pruritus; summary of Table 2): not

CCCCC/C=C\C\C=C/C=C/C=C/[C@@H](SC[C@H](NC(=O)CC[C@H](N)C(=O)O)C(=O)NCC(=O)O)[C@@H](O)CCCC(=O)O [LEUKOTRIENE C4]
NO OF SCRATCH EPISODES (X̄ ± SEM) (albino guinea-pig eye; [2]): 0.58 ± 0.36

CC(C)[C@H](N)C(=O)NCC(=O)N[C@@H](CC(=O)O)C(=O)N[C@@H](CCC(=O)O)C(=O)O [L-valylglycyl-L-aspartyl-L-glutamic acid] (H-VGDE-OH)
NO OF SCRATCH EPISODES (X̄ ± SEM) (albino guinea-pig eye; [3]): 0.92 ± 0.26

CCCCC[C@H](O)/C=C/[C@@H]1[C@@H](C/C=C\CCCC(=O)O)[C@@H](O)C[C@H]1O [PROSTAGLANDIN F2α]
NO OF SCRATCH EPISODES (X̄ ± SEM) (albino guinea-pig eye; [3]): 1.75 ± 0.37

CCCCCCCCCCCCCCCCOCC(COP(=O)([O-])OCC[N+](C)(C)C)OC(C)=O (stereo not shown) [PAF, 1-O-alkyl-2-acetyl-sn-glycero-3-phosphocholine]
pruritogenic activity (in words) (albino guinea-pig eye): most potent pruritogenic agent

Cc1nnc2n1-c1sc(CCC(=O)N3CCOCC3)cc1C(c1ccccc1Cl)=NC2 [Compound of formula (IV)]
scratch episodes, TREATED GROUP (mean ± SEM) (PAF induced pruritus; 5 mg/ml, vs 1 µg PAF): 0.33 ± 0.19
scratch episodes, TREATED GROUP (mean ± SEM) (PAF induced pruritus; 5 mg/ml, vs 10 µg PAF): 5.25 ± 0.98
scratch episodes, TREATED GROUP ([1]; 10 mg/ml pretreatment vs 10 µG antigen): 5.00 ± 1.10
